This note sets out measurements from US11858941B2, “Heterocyclic and heteroaryl compounds for treating Huntington's disease” (PTC THERAPEUTICS, INC., priority 2018, dated 2024).

pIC50: −log10 of the molar value. Bounds are passed on as bounds.

The test concerns Endogenous Huntingtin Protein. In words: Endogenous Huntingtin Protein Assay (Meso Scale Discovery ELISA-based electrochemiluminescence). The class given is cell-based. Conditions: MSD plates coated with MW1 (expanded polyglutamine) or MAB2166 capture antibody; lysates. The procedure:
Compounds of Formula (I) were tested using the Meso Scale Discovery (MSD) Assay provided in International Application No. PCT/US2016/066042, filed on Dec. 11, 2016 and claiming priority to United States Provisional Application U.S. 62/265,652 filed on Dec. 10, 2015, the entire contents of which are incorporated herein by reference.
The Endogenous Huntingtin Protein assay used in Example 1 was developed using the ELISA-based MSD electrochemiluminescence assay platform.
Endogenous Huntingtin Protein Assay
Meso Scale Discovery (MSD) 96-well or 384-well plates were coated overnight at 4° C. with MW1 (expanded polyglutamine) or MAB2166 monoclonal antibody (for capture) at a concentration of 1 μg/mL in PBS (30 μL per well). Plates were then washed three times with 300 μL wash buffer (0.05% Tween-20 in PBS) and blocked (100 μL blocking buffer; 5% BSA in PBS) for 4-5 hours at room temperature with rotational shaking and then washed three times with wash buffer.
Samples (25 μL) were transferred to the antibody-coated MSD plate and incubated overnight at 4° C. After removal of the lysates, the plate was washed three times with wash buffer, and 25 μL of #5656S (Cell signaling; rabbit monoclonal) secondary antibody (diluted to 0.25 μg/mL in 0.05% Tween-20 in blocking buffer) was added to each well and incubated with shaking for 1 Hour at room temperature. Following incubation with the secondary antibody, the wells were rinsed with wash buffer after which 25 μL of goat anti-rabbit SULFO TAG secondary detection antibody (required aspect of the MSD system) (diluted to 0.25 μg/mL in 0.05% Tween-20 in blocking buffer) was added to each well and incubated with shaking for 1 hour at room temperature. After rinsing three times with wash buffer, 150 μL of read buffer T with surfactant (MSD) were added to each empty well, and the plate was imaged on a SI 6000 imager (MSD) according to manufacturers' instructions provided for 96- or 384-well plates.

`CC1(C)CC(n2ncc3cc(-c4ccc(-n5nccn5)cc4O)nnc32)CC(C)(C)N1` [Cpd 174, 2-[1-(2,2,6,6-tetramethylpiperidin-4-yl)-1H-pyrazolo[3,4-c]pyridazin-5-yl]-5-(2H-1,2,3-triazol-2-yl)phenol] showed a pIC50 of at least 7.00.
As to `Cc1nsc(-c2ccc(-c3cc4nnn(C5CC(C)(C)NC(C)(C)C5)c4nn3)c(O)c2)n1` [Cpd 153, 5-(3-methyl-1,2,4-thiadiazol-5-yl)-2-[3-(2,2,6,6-tetramethylpiperidin-4-yl)-3H-[1,2,3]triazolo[4,5-c]pyridazin-6-yl]phenol], the pIC50 was at least 7.00.
Then `CC1(C)CC(n2nnc3cc(-c4ccc(-c5cc(F)c6nn[nH]c6c5)cc4O)nnc32)CC(C)(C)N1` [Cpd 135, 5-(4-fluoro-1H-benzotriazol-6-yl)-2-[3-(2,2,6,6-tetramethylpiperidin-4-yl)-3H-[1,2,3]triazolo[4,5-c]pyridazin-6-yl]phenol], with at least 7.00; and `CNc1cc(-c2ccc(-c3cc4nnn(C5CC(C)(C)NC(C)(C)C5)c4nn3)c(O)c2)ccn1` [Cpd 104, 5-[2-(methylamino)pyridin-4-yl]-2-[3-(2,2,6,6-tetramethylpiperidin-4-yl)-3H-[1,2,3]triazolo[4,5-c]pyridazin-6-yl]phenol], with at least 7.00; and `[2H]C([2H])([2H])n1cc(-c2ccc(-c3cc4nnn(C5CC(C)(C)NC(C)(C)C5)c4nn3)c(O)c2)cn1` [Cpd 69, 5-[1-(^2H3)methyl-1H-pyrazol-4-yl]-2-[3-(2,2,6,6-tetramethylpiperidin-4-yl)-3H-[1,2,3]triazolo[4,5-c]pyridazin-6-yl]phenol], with at least 7.00.
Then `CC1(C)CC(n2nnc3cc(-c4ccc(-c5ncc(O)cn5)cc4O)nnc32)CC(C)(C)N1` [Cpd 68, 2-{3-hydroxy-4-[3-(2,2,6,6-tetramethylpiperidin-4-yl)-3H-[1,2,3]triazolo[4,5-c]pyridazin-6-yl]phenyl}pyrimidin-5-ol], with at least 7.00.
Consider `CC1(C)CC(n2nnc3cc(-c4ccc(-c5ncns5)cc4O)nnc32)CC(C)(C)N1` [Cpd 134, 2-[3-(2,2,6,6-tetramethylpiperidin-4-yl)-3H-[1,2,3]triazolo[4,5-c]pyridazin-6-yl]-5-(1,2,4-thiadiazol-5-yl)phenol], for which the pIC50 is at least 7.00.
`CC1(C)CC(n2nnc3cc(-c4cc5cccnc5cc4O)nnc32)CC(C)(C)N1` [Cpd 81, 6-[3-(2,2,6,6-tetramethylpiperidin-4-yl)-3H-[1,2,3]triazolo[4,5-c]pyridazin-6-yl]quinolin-7-ol] showed a pIC50 of 5.52 to 6.00.
`[2H]C([2H])([2H])n1cc(-c2ccc(-c3cc4cnn(C5CC(C)(C)NC(C)(C)C5)c4nn3)c(O)c2)cn1` [Cpd 102, 5-[1-(^2H3)methyl-1H-pyrazol-4-yl]-2-[1-(2,2,6,6-tetramethylpiperidin-4-yl)-1H-pyrazolo[3,4-c]pyridazin-5-yl]phenol]: the pIC50 was at least 7.00.
On to `CC1(C)CC(n2nnc3cc(-c4ccc(-c5c[nH]nc5Cl)cc4O)nnc32)CC(C)(C)N1` [Cpd 129, 5-(3-chloro-1H-pyrazol-4-yl)-2-[3-(2,2,6,6-tetramethylpiperidin-4-yl)-3H-[1,2,3]triazolo[4,5-c]pyridazin-6-yl]phenol], for which the pIC50 is at least 7.00.
Compound `CC1(C)CC(n2cnc3nc(-c4cc(F)c(-c5cn[nH]c5)cc4F)cnc32)CC(C)(C)N1` [Cpd 2, 5-[2,5-difluoro-4-(1H-pyrazol-4-yl)phenyl]-1-(2,2,6,6-tetramethylpiperidin-4-yl)-1H-imidazo[4,5-b]pyrazine] had a pIC50 of 6.30 to 7.00.
As for `Cc1nc2cc(-c3cc4nnn(C5CC(C)(C)NC(C)(C)C5)c4nn3)c(O)cc2[nH]1` [Cpd 97, 2-methyl-5-[3-(2,2,6,6-tetramethylpiperidin-4-yl)-3H-[1,2,3]triazolo[4,5-c]pyridazin-6-yl]-1H-benzimidazol-6-ol], the pIC50 was at least 7.00.
Then `Cn1cc(-c2ccc(-c3cc4nnn(C5CC(C)(C)NC(C)(C)C5)c4nn3)c(O)c2)c(Cl)n1` [Cpd 127, 5-(3-chloro-1-methyl-1H-pyrazol-4-yl)-2-[3-(2,2,6,6-tetramethylpiperidin-4-yl)-3H-[1,2,3]triazolo[4,5-c]pyridazin-6-yl]phenol], with at least 7.00; and `CC1(C)CC(n2ncc3cc(-c4ccc(-c5cn[nH]c5)cc4O)nnc32)CC(C)(C)N1` [Cpd 22, 5-(1H-pyrazol-4-yl)-2-[1-(2,2,6,6-tetramethylpiperidin-4-yl)-1H-pyrazolo[3,4-c]pyridazin-5-yl]phenol], with at least 7.00.
Turning to `Cc1ccnn1-c1ccc(-c2cc3nnn(C4CC(C)(C)NC(C)(C)C4)c3nn2)c(O)c1` [Cpd 155, 5-(5-methyl-1H-pyrazol-1-yl)-2-[3-(2,2,6,6-tetramethylpiperidin-4-yl)-3H-[1,2,3]triazolo[4,5-c]pyridazin-6-yl]phenol], the negative-log IC50 (pIC50) is 5.05 to 5.52.
The compound `CC1(C)CC(n2nnc3cc(-c4ccc(-c5ccncc5)cc4O)nnc32)CC(C)(C)N1` [Cpd 66, 5-(pyridin-4-yl)-2-[3-(2,2,6,6-tetramethylpiperidin-4-yl)-3H-[1,2,3]triazolo[4,5-c]pyridazin-6-yl]phenol] showed a pIC50 of at least 7.00.
`CC1(C)CC(n2cnc3cc(-c4ncc(-c5cn[nH]c5)cc4O)nnc32)CC(C)(C)N1` [Cpd 141, 5-(1H-pyrazol-4-yl)-2-[7-(2,2,6,6-tetramethylpiperidin-4-yl)-7H-imidazo[4,5-c]pyridazin-3-yl]pyridin-3-ol] gave a pIC50 of at least 7.00.
Consider `CNc1nc2cc(-c3ccc(-c4cn[nH]c4)cc3O)nnc2n1C1CC(C)(C)NC(C)(C)C1` [Cpd 42, 2-[6-(methylamino)-7-(2,2,6,6-tetramethylpiperidin-4-yl)-7H-imidazo[4,5-c]pyridazin-3-yl]-5-(1H-pyrazol-4-yl)phenol], for which the pIC50 is 6.30 to 7.00.
Regarding `CC1(C)CC(n2nnc3cc(-c4ccc(-c5cn[nH]c5)c(F)c4O)nnc32)CC(C)(C)N1` [Cpd 54, 2-fluoro-3-(1H-pyrazol-4-yl)-6-[3-(2,2,6,6-tetramethylpiperidin-4-yl)-3H-[1,2,3]triazolo[4,5-c]pyridazin-6-yl]phenol], the pIC50 was at least 7.00.
For `CC1(C)CC(n2nnc3cc(-c4ccc(-c5cc6nn[nH]c6cn5)cc4O)nnc32)CC(C)(C)N1` [Cpd 146, 2-[3-(2,2,6,6-tetramethylpiperidin-4-yl)-3H-[1,2,3]triazolo[4,5-c]pyridazin-6-yl]-5-(3H-[1,2,3]triazolo[4,5-c]pyridin-6-yl)phenol], the pIC50 was 5.52 to 6.00.
With `CC1(C)CC(c2c[nH]c3cc(-c4ccc(-c5cn[nH]c5)cc4O)nnc23)CC(C)(C)N1` [Cpd 31, 5-(1H-pyrazol-4-yl)-2-[7-(2,2,6,6-tetramethylpiperidin-4-yl)-5H-pyrrolo[3,2-c]pyridazin-3-yl]phenol], the pIC50 was at least 7.00.
For `CC1(C)CC(n2nnc3cc(-c4ccc(-c5ccn6ncnc6c5)cc4O)nnc32)CC(C)(C)N1` [Cpd 126, 2-[3-(2,2,6,6-tetramethylpiperidin-4-yl)-3H-[1,2,3]triazolo[4,5-c]pyridazin-6-yl]-5-([1,2,4]triazolo[1,5-a]pyridin-7-yl)phenol], the pIC50 is 6.30 to 7.00.
Then `CC1(C)CC(n2ccc3cc(-c4ccc(-c5cn[nH]c5)cc4O)nnc32)CC(C)(C)N1` [Cpd 26, 5-(1H-pyrazol-4-yl)-2-[7-(2,2,6,6-tetramethylpiperidin-4-yl)-7H-pyrrolo[2,3-c]pyridazin-3-yl]phenol], with at least 7.00.
Compound `CC1(C)C=C(n2ccc3nc(-c4ccc(-c5cn[nH]c5)cc4O)cnc32)CC(C)(C)N1` [Cpd 8, 5-(1H-pyrazol-4-yl)-2-[5-(2,2,6,6-tetramethyl-1,2,3,6-tetrahydropyridin-4-yl)-5H-pyrrolo[2,3-b]pyrazin-2-yl]phenol] gave a pIC50 of 5.52 to 6.00.
For `Cc1cc(-c2ccc(-c3cc4nnn(C5CC(C)(C)NC(C)(C)C5)c4nn3)c(O)c2)ccn1` [Cpd 73, 5-(2-methylpyridin-4-yl)-2-[3-(2,2,6,6-tetramethylpiperidin-4-yl)-3H-[1,2,3]triazolo[4,5-c]pyridazin-6-yl]phenol], the pIC50 is at least 7.00.
`COc1n[nH]cc1-c1ccc(-c2cc3nnn(C4CC(C)(C)NC(C)(C)C4)c3nn2)c(O)c1` [Cpd 131, 5-(3-methoxy-1H-pyrazol-4-yl)-2-[3-(2,2,6,6-tetramethylpiperidin-4-yl)-3H-[1,2,3]triazolo[4,5-c]pyridazin-6-yl]phenol] had a pIC50 of at least 7.00.
The compound `Oc1cc(-c2cn[nH]c2)ccc1-c1cc2scc(C3=CC4COCC(C3)N4)c2nn1` (stereo not shown) [Cpd 25, 2-[7-(3-oxa-9-azabicyclo[3.3.1]non-6-en-7-yl)thieno[3,2-c]pyridazin-3-yl]-5-(1H-pyrazol-4-yl)phenol] showed a pIC50 of at least 7.00.
The result for `Oc1cc(-c2cn[nH]c2)ccc1-c1cc2[nH]cc(C3CC4COCC(C3)N4)c2nn1` (stereo not shown) [Cpd 30, 2-[7-(3-oxa-9-azabicyclo[3.3.1]non-7-yl)-5H-pyrrolo[3,2-c]pyridazin-3-yl]-5-(1H-pyrazol-4-yl)phenol] reads 6.00 to 6.30.

The term pIC50 denotes the negative decadic logarithm of the IC50, by convention in mol/L. Read a high pIC50 as a low IC50.
